15 compounds from patent US10131649B2, “Bicyclic compounds as pest control agents” (BAYER CROPSCIENCE AKTIENGESELLSCHAFT, priority 2014, dated 2018) can be followed below.

The subject of series [1] is larvae of the mustard beetle (Phaedon cochleariae). Description: Phaedon cochleariae spray test. The class given is in vivo. The following applies: application rate 500 g/ha; after 7 days; 100% = all beetle larvae killed. The method, then: Phaedon cochleariae—Spray Test
(§1) Solvent: • 78.0 parts by weight of acetone • 1.5 parts by weight of dimethylformamide
(§2) Emulsifier: alkylaryl polyglycol ether
(§3) To produce a suitable preparation of active compound, 1 part by weight of active compound is dissolved using the specified parts by weight of solvent and made up with water containing an emulsifier concentration of 1000 ppm until the desired concentration is attained. To produce further test concentrations, the formulation is diluted with emulsifier-containing water.
Discs of Chinese cabbage leaves (Brassica pekinensis) are sprayed with an active compound preparation of the desired concentration and, after drying, populated with larvae of the mustard beetle (Phaedon cochleariae).
After 7 days, the efficacy in % is determined. 100% means that all the beetle larvae have been killed; 0% means that no beetle larvae have been killed.

Series [2] relates to green peach aphid (Myzus persicae). Kind of series: Myzus persicae spray test (Chinese cabbage leaf discs). The class given is in vivo. The following applies: foliar, 144 h, read-out: efficacy in %. The method, then: (§4) Myzus persicae—Spray Test
Solvent: • 78 parts by weight of acetone • 1.5 parts by weight of dimethylformamide
as §2, §3
Discs of Chinese cabbage leaves (Brassica pekinensis) infested by all stages of the green peach aphid (Myzus persicae) are sprayed with an active compound formulation of the desired concentration.
After 6 days, the efficacy in % is determined. 100% means that all the aphids have been killed; 0% means that no aphids have been killed.

The subject of series [3] is caterpillars of the armyworm (Spodoptera frugiperda). Description: Spodoptera frugiperda spray test. It is filed as in vivo. The following applies: application rate 500 g/ha; after 7 days; maize leaf discs; 100% = all caterpillars killed. On the procedure: Spodoptera frugiperda—Spray Test
as §1, §2, §3
Leaf discs of maize (Zea mays) are sprayed with an active compound formulation of the desired concentration and, after drying, populated with caterpillars of the armyworm (Spodoptera frugiperda).
After 7 days, the efficacy in % is determined. 100% means that all the caterpillars have been killed; 0% means that no caterpillar has been killed.

Series [4] in a line: log P by HPLC on reversed-phase columns (OECD Guideline 117), [a] acidic pH 2.7, [b] neutral pH 7.8. It is filed as physicochemical. The following applies: reversed-phase (C18) HPLC column. The method, then: The log P values were determined in accordance with OECD Guideline 117 (EC Directive 92/69/EEC) by HPLC (high-performance liquid chromatography) using reversed-phase (RP) columns (C18), by the following methods:
[a] The LC-MS determination in the acidic range is carried out at pH 2.7 with 0.1% aqueous formic acid and acetonitrile (contains 0.1% formic acid) as eluents; linear gradient from 10% acetonitrile to 95% acetonitrile.
[b] LC-MS determination in the neutral range is effected at pH 7.8 with 0.001 molar aqueous ammonium hydrogencarbonate solution and acetonitrile as eluents; linear gradient from 10% acetonitrile to 95% acetonitrile.
Calibration is carried out using unbranched alkan-2-ones (having 3 to 16 carbon atoms) with known log P values (log P values determined on the basis of the retention times by linear interpolation between two successive alkanones).

Series [5] deals with green peach aphid (Myzus persicae). Description: Myzus persicae spray test (bell pepper plants). The following applies: application rate 4 ppm, after 6 days, 100% = all aphids killed. The class given is in vivo. On the procedure: as §4
Solvent: 7 parts by weight of dimethylformamide
as §2
To produce a suitable preparation of active compound, 1 part by weight of active compound is dissolved using the specified parts by weight of solvent and made up with water containing an emulsifier concentration of 1000 ppm until the desired concentration is attained. To produce further test concentrations, the formulation is diluted with emulsifier-containing water. If the addition of ammonium salts or/and penetrants is required, these are each added in a concentration of 1000 ppm to the formulation solution.
Bell pepper plants (Capsicum annuum) severely infested with the green peach aphid (Myzus persicae) are treated by spraying with the active compound formulation in the desired concentration.
After 6 days, the kill in % is determined. 100% means that all of the aphids have been killed; 0% means that none of the aphids have been killed.

For series [6], the system named is engorged adult female cattle ticks (Boophilus microplus). Kind of series: Boophilus microplus injection test. It is filed as in vivo. The following applies: application rate 20 μg/animal, assessed after 7 days, 100% = no tick laid fertile eggs. On the procedure:
Boophilus microplus—Injection Test
(§5) Solvent: dimethyl sulphoxide
To produce a suitable preparation of active compound, 10 mg of active compound are mixed with 0.5 ml of solvent and the concentrate is diluted with solvent to the desired concentration.
1 μl of the active compound solution is injected into the abdomen of 5 engorged adult female cattle ticks (Boophilus microplus). The animals are transferred into dishes and kept in a climate-controlled room.
Efficacy is assessed after 7 days by laying of fertile eggs. Eggs which are not externally visibly fertile are stored in a climate-controlled cabinet until the larvae hatch after about 42 days. An efficacy of 100% means that none of the ticks has laid any fertile eggs; 0% means that all the eggs are fertile.

Series [7] concerns nematode larvae (Cooperia curticei). Description: Cooperia curticei test. It is filed as in vivo. The following applies: application rate 20 ppm; after 5 days; 100% = all larvae killed. On the procedure:
as §5
(§6) To produce a suitable preparation of active compound, 10 mg of active compound are mixed with 0.5 ml of dimethyl sulfoxide and the concentrate is diluted with “Ringer's solution” to the desired concentration.
Vessels containing the active compound preparation of the desired concentration are populated with about 40 nematode larvae (Cooperia curticei).
(§7) After 5 days, the kill in % is determined. 100% means that all the larvae have been killed; 0% means that none of the larvae have been killed.

The subject of series [8] is larvae of the red stomach worm (Haemonchus contortus). Kind of series: Haemonchus contortus test. The class given is in vivo. The following applies: application rate 20 ppm; after 5 days; 100% = all larvae killed. The method, then: Haemonchus contortus—Test
as §5, §6
Vessels containing the active compound preparation of the desired concentration are populated with about 40 larvae of the red stomach worm (Haemonchus contortus).
as §7

The subject of series [9] is southern root-knot nematode (Meloidogyne incognita). Kind of series: Meloidogyne incognita test. It is filed as in vivo. The following applies: application rate 20 ppm; after 14 days; lettuce; 100% = no galls found. The method, then:
Meloidogyne incognita—Test
Solvent: 125.0 parts by weight of acetone
To produce a suitable active compound preparation, 1 part by weight of active compound is mixed with the stated amount of solvent and the concentrate is diluted with water to the desired concentration.
Vessels are filled with sand, active compound solution, an egg/larvae suspension of the southern root-knot nematode (Meloidogyne incognita) and lettuce seeds. The lettuce seeds germinate and the plants develop. The galls develop on the roots.
After 14 days, the nematicidal efficacy in % is determined by the formation of galls. 100% means that no galls were found; 0% means that the number of galls on the treated plants corresponds to the untreated control.

Series [10] has as its system greenhouse red spider mite (Tetranychus urticae). Kind of series: Tetranychus urticae spray test, OP-resistant. The following applies: application rate 500 g/ha; after 6 days; bean leaf discs; 100% = all spider mites killed. It is filed as in vivo. On the procedure: Tetranychus urticae—Spray Test, OP-Resistant
as §1, §2, §3
Discs of bean leaves (Phaseolus vulgaris) infested with all stages of the greenhouse red spider mite (Tetranychus urticae) are sprayed with an active compound formulation of the desired concentration.
After 6 days, the efficacy in % is determined. 100% means that all the spider mites have been killed; 0% means that no spider mites have been killed.

[11] abbreviates: acidic pH 2.7, read-out: logP[a].
The mark [12] stands for this setting: neutral pH 7.8, read-out: logP[b].

Like-named read-outs stand apart in the source and are kept apart here.

For `Fc1cncc(-n2cc3cc(C(F)(F)F)ccc3n2)c1` [Example 16], the efficacy in % in series [1] was found to be 100%. Moreover, the pest or weed control at 500 g/ha in series [2] was found to be 100%.
As to `CN(C)C(=O)c1ccc2nn(-c3cnn(C)c3)cc2c1` [Example 38], the efficacy in % in [1] and in [3] was 100% in each case.
With `Cc1cc(C)c(-c2ccc3nn(-c4cccnc4)cc3c2)cc1SCC(F)(F)F` [Example 51, 5-[2,4-Dimethyl-5-(2,2,2-trifluoroethylsulphanyl)phenyl]-2-(3-pyridyl)indazole], the chromatographic logP amounted to 4.42 in [4] (setting [11]) and 4.4 in series [4] (setting [12]). Besides, in series [2], the pest or weed control at 500 g/ha was 90%. Moreover, the “efficacy (kill in %)” value in series [5] came out at 100%.
For `Cc1cc(F)c(-c2ccc3nn(-c4cccnc4)cc3c2)cc1[S+]([O-])CC(F)(F)F` (stereo not shown) [Example 52, 5-[2-Fluoro-4-methyl-5-(2,2,2-trifluoroethylsulphinyl)phenyl]-2-(3-pyridyl)indazole], the chromatographic logP is 2.8 in series [4] (setting [11]) and 2.74 in [4] (setting [12]). Further, the “efficacy (laying of fertile eggs)” value in series [6] is listed as 100%. Moreover, in [2], the pest or weed control at 500 g/ha is 100%.
With `FC(F)(F)c1ccn(-c2ccc3nn(-c4cccnc4)cc3c2)n1` [Example 56, 2-(3-Pyridyl)-5-[3-(trifluoromethyl)pyrazol-1-yl]indazole], the “efficacy (kill in %)” value in series [7] is on record as 90%. Also, the chromatographic logP in series [4] (setting [11]) is 2.83; in series [4] (setting [12]), 2.79. Besides, the pest or weed control at 500 g/ha in series [2] turned out to be 90%.
As to `c1cncc(-c2ccc3nn(-c4cccnc4)cc3c2)c1` [Example 57, 2,5-Bis(3-pyridyl)indazole], in [7], the “efficacy (kill in %)” value stood at 80%. The chromatographic logP worked out at 0.88 in series [4] (setting [11]) and 1.71 in series [4] (setting [12]). Further, the pest or weed control at 500 g/ha in series [2] turned out to be 90%.
`Cc1ccc(-c2ccc3nn(-c4cccnc4)cc3c2)nc1` [Example 65]: the “efficacy (kill in %)” value in [7] worked out at 90%; in series [8] it was 80%. Also, the chromatographic logP was 1.23 in [4] (setting [11]) and 2.25 in [4] (setting [12]). In addition, the pest or weed control at 500 g/ha in series [2] is 90%.
Take `Clc1ccc(-c2ccc3nn(-c4cccnc4)cc3c2)nc1` [Example 67]: the “efficacy (kill in %)” value in series [7] and in [8] was 80% in each case. For the same compound, the results for the chromatographic logP in series [4] (setting [11]) and in series [4] (setting [12]) were 2.8 and 2.78, respectively. In addition, the pest or weed control at 500 g/ha in [2] came to 100%.
For the compound `CCSc1ccnc(-c2ccc3nn(-c4cccnc4)cc3c2)c1` [Example 76, 5-[4-(Ethylsulphanyl)pyridin-2-yl]-2-(pyridin-3-yl)-2H-indazole], in series [7], the “efficacy (kill in %)” value is 80%. The figures for the chromatographic logP in [4] (setting [11]) and in series [4] (setting [12]) were 1.62 and 2.84, respectively. The pest or weed control at 500 g/ha in [2] turned out to be 90%.
For `Cc1cc(F)c(NC(=O)c2ccc3nn(-c4cccnc4)cc3c2)cc1[S+]([O-])CC(F)(F)F` (stereo not shown) [Example 96], the values for the chromatographic logP in series [4] (setting [11]) and in series [4] (setting [12]) were 2.19 and 2.14, respectively. Moreover, the pest or weed control at 500 g/ha in [2] amounted to 100%.
The like results for `Cc1cc(C)c([S+]([O-])CC(F)(F)F)cc1NC(=O)c1ccc2nn(-c3cccnc3)cc2c1` (stereo not shown) [Example 97] were, in that order, 2.2, 2.22 and 100%.
Regarding `FC(F)(F)Cn1cc(-c2ccc3nn(-c4cccnc4)cc3c2)cn1` [Example 99, 2-(Pyridin-3-yl)-5-[1-(2,2,2-trifluoroethyl)-1H-pyrazol-4-yl]-2H-indazole], the chromatographic logP in [4] (setting [11]) and in series [4] (setting [12]) was 2.12 in each case. Further, the “nematicidal efficacy in % (formation of galls)” value in [9] is listed as 90%. The pest or weed control at 500 g/ha in [2] came to 90%.
As to `Fc1ccnc(-c2ccc3nn(-c4cccnc4)cc3c2)c1` [Example 101], the figures for the chromatographic logP in [4] (setting [11]) and in series [4] (setting [12]) were 2.04 and 2.21, respectively. The pest or weed control at 500 g/ha in series [2] was found to be 90%.
`Fc1cccc(-c2ccc3nn(-c4cccnc4)cc3c2)n1` [Example 104]: the chromatographic logP is 2.4 in [4] (setting [11]) and 2.44 in [4] (setting [12]). In series [9], the “nematicidal efficacy in % (formation of galls)” value is given as 90%. Also, the pest or weed control at 500 g/ha in series [2] was found to be 90%.
Compound `Cc1cc(F)c(C(=O)N(C)c2ccc3nn(-c4cnn(C)c4)cc3c2)cc1[S+]([O-])CC(F)(F)F` (stereo not shown) [Example 117] registered an efficacy in % in [10] of 90%.
